Experimental data taken from PubChem BioAssay (NCI).
Values joined by “and” are separate entries in the source; they are usually repeats but may differ in a detail not shown here. Identical values can stand only once.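 Tested at 5 concentrations; 48 h exposure; 96-well plates; endpoints linearly interpolated, else capped at highest concentration. Here, GI50 denotes the concentration required for 50% inhibition of growth. TGI marks complete inhibition of growth.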

Tests used:
Assay in all cases: NCI tumour cell line growth inhibition, 48 h
A498 renal = system: A498 renal
TK-10 renal = system: TK-10 renal
HCC-2998 colon = system: HCC-2998 colon
ACHN renal = system: ACHN renal
HT29 colon = system: HT29 colon
SF-539 CNS = system: SF-539 CNS
UACC-62 melanoma = system: UACC-62 melanoma
RXF 393 renal = system: RXF 393 renal
SK-OV-3 ovarian = system: SK-OV-3 ovarian
PC-3 prostate = system: PC-3 prostate

Row | SMILES | TGI (A498 renal) [µM] | TGI (TK-10 renal) [µM] | TGI (HCC-2998 colon) [µM] | TGI (ACHN renal) [µM] | TGI (HT29 colon) [µM] | TGI (SF-539 CNS) [µM] | TGI (UACC-62 melanoma) [µM] | TGI (RXF 393 renal) | TGI (SK-OV-3 ovarian) [µM] | TGI (PC-3 prostate) [µM] | GI50 (RXF 393 renal) [µM] | GI50 (TK-10 renal) [µM] | GI50 (PC-3 prostate) [µM] | GI50 (HCC-2998 colon) [µM] | GI50 (ACHN renal) [µM] | GI50 (HT29 colon) [µM] | GI50 (SF-539 CNS) [µM] | GI50 (UACC-62 melanoma) [µM] | GI50 (SK-OV-3 ovarian) [µM]
1 | Cc1ccc(/C=C(\NC(=O)c2ccccc2)c2nc3ccccc3[nH]2)cc1 | > 100 | > 100 | > 100 | > 100 | > 100 | > 100 | > 100 | > 100 µM |  |  |  |  |  |  |  |  |  |  | 
2 | Cc1[nH]c2ccccc2c1CC/C(=N\Nc1ccccc1)c1ccccc1 | > 100 | > 100 | > 100 | > 100 | > 100 | > 100 | > 100 | > 100 µM | > 100 |  |  |  |  |  |  |  |  |  | 
3 | CSc1ccc2c(cc1=O)[C@@H](NC(=O)c1ccc(Cl)cc1)CCc1cc(O)c(O)c(O)c1-2 | > 100 | > 100 | > 100 | > 100 | > 100 | > 100 | 68.1 | > 100 µM | > 100 |  |  |  |  |  |  |  |  |  | 
4 | CCC1C(C(=O)Nc2ccccc2C)=C(C)NC(C)=C1c1ccccc1C (stereo unspecified) | > 100 | > 100 | > 100 | > 100 | > 100 | > 100 | > 100 | > 100 µM | > 100 |  |  |  |  |  |  |  |  |  | 
5 | O=C(Cc1nc2ccccc2o1)C(=O)Nc1cccc(Cl)c1 | > 100 | > 100 | > 100 | > 100 | > 100 | > 100 | > 100 | > 100 µM | > 100 |  |  |  |  |  |  |  |  |  | 
6 | CCN(CC)CC(C)C(=O)/C=C/c1ccc(C)cc1 (stereo unspecified) | 20.6 | 3.69 | 9.28 | 4.36 | 3.31 | 3.85 | 12.2 | 4.31 µM | 30.7 |  |  |  |  |  |  |  |  |  | 
7 | COc1cc2oc(-c3ccccc3)cc(=O)c2c(O)c1C | > 100 | > 100 | > 100 | > 100 | > 100 | > 100 | > 100 |  | > 100 |  |  |  |  |  |  |  |  |  | 
8 | O=C(/C=C/c1ccccc1O)c1ccc([N+](=O)[O-])cc1 | 40.9 | 77.2 | 30.1 | 26.4 | 36.7 | 29.2 | 31.2 | 24.3 µM | 70.7 |  |  |  |  |  |  |  |  |  | 
9 | CSc1nc2nn(Cc3ccccc3)cc2c(=O)[nH]1 | > 100 | > 100 | > 100 | > 100 | > 100 | > 100 | > 100 | > 100 µM | > 100 |  |  |  |  |  |  |  |  |  | 
10 | CN(C)CCC(CCN(C)C)=NO | > 100 | > 100 | > 100 | > 100 | > 100 | > 100 | > 100 | > 100 µM | > 100 |  |  |  |  |  |  |  |  |  | 
11 | CCCCCCn1c(SC)nc(COC(=O)NC)c1COC(=O)NC | 30.8 | 31.2 |  | 30.5 | 36.2 | 32.4 | 28.2 |  | 33.2 | 31.8 |  |  |  |  |  |  |  |  | 
12 | O=C(OCCCl)C1OC(n2cc(F)c(=O)[nH]c2=O)CC1O (stereo unspecified) | > 100 | > 100 | > 100 | > 100 | > 100 | > 100 | > 100 | > 100 µM | > 100 |  |  |  |  |  |  |  |  |  | 
13 | CCn1c2ccccc2c(=O)c2c(OC)ccc(OC)c21 | > 100 |  |  | > 100 | > 100 | > 100 | > 100 | 80.1 µM | > 100 |  |  |  |  |  |  |  |  |  | 
14 | C=CC(=O)NC(N)=NC#N | 285 | 272 | 329 | 245 | 372 | 303 | 294 | 98.1 µM and 286 µM | 315 |  | 149 |  |  |  |  |  |  |  | 
15 | O=C(N/C(=C\c1cccc([N+](=O)[O-])c1)c1nc2ccccc2[nH]1)c1ccccc1 | > 100 |  | > 100 | > 100 | > 100 | > 100 | > 100 |  | > 100 |  |  |  |  |  |  |  |  |  | 
16 | N#CC1=C(N)NC(=S)NC12Nc1ccccc1S2 (stereo unspecified) |  | > 100 | > 100 | 74.3 | > 100 | 41.4 | 55.8 | > 100 µM | > 100 | 71.7 | 33.8 | 41.5 | 22 | 33 | 21.8 | 31 | 14.7 | 19.7 | 37.1
17 | C=C1C(=O)O[C@H]2[C@H](OC(C)=O)[C@@H](C)CCCC3(C)OC3CCC3(CO3)[C@H](O)C[C@@H]12 (stereo partly specified) |  | 21.2 | 7.21 | 22.3 | > 100 | 37.1 | 24.1 | > 100 µM | 62 | 18 | 12.4 | 7.39 | 4.4 | 1.99 | 10.4 | 3.42 | 15.4 | 11.8 | 21.2
18 | COC(=O)c1ncc2c(=O)[nH]c3ccccc3c2c1C(=O)OC | > 100 | > 100 | > 100 | > 100 | > 100 | > 100 | > 100 | > 100 µM |  |  |  |  |  |  |  |  |  |  | 
19 | Oc1ccc2ccccc2c1N=Nc1cc(Cl)ccc1Cl |  | 35.9 |  | 24.7 | > 50 |  | > 50 | > 50 µM | 41.2 | > 50 |  |  |  |  |  |  |  |  | 
20 | OCC[N+]12CCCN1CCC2 | > 100 | > 100 | > 100 | > 100 | > 100 | > 100 | > 100 | > 100 µM | > 100 |  |  |  |  |  |  |  |  |  | 
21 | COc1ccc(C(=O)c2c3cc(OC)c(OC)c(OC)c3cc[n+]2C)cc1 | > 100 | > 100 | 98.8 | > 100 | > 100 |  |  | > 100 µM | > 100 |  |  |  |  |  |  |  |  |  | 
